Assay results: patent publication US20170304388A1, “NEW INDICATION OF CARDIOVASCULAR DRUGS FOR PREPARATION OF CANCER INHIBITION PHARMACEUTICAL COMPOSITION” (LAUNX BIOMEDICAL CO., LTD., priority 2014, published 2017)

Assays:
Format in all cases: cell-based
[1] = system: A375 (Amelanotic Melanoma); assay: Cell viability analysis (WST-1), A375; conditions: Homo sapiens, A-375, 72 h, Table 4, repeated experiments, drug 10 μM, WST-1, read-out: survival rate (viability) of cancer cells, A375
[2] = system: HCT116 (Colorectal Carcinoma); assay: Cell viability analysis (WST-1), HCT116; conditions: Homo sapiens, HCT-116, 72 h, Table 4, repeated experiments, drug 10 μM, WST-1, read-out: survival rate (viability) of cancer cells, HCT116
[3] = system: HepG2 (Hepatocellular Carcinoma); assay: Cell viability analysis (WST-1), HepG2; conditions: Homo sapiens, HepG2, 72 h, Table 4, repeated experiments, drug 10 μM, WST-1, read-out: survival rate (viability) of cancer cells, HepG2
[4] = system: HeLa (Cervix Adenocarcinoma); assay: Cell viability analysis (WST-1), HeLa; conditions: Homo sapiens, HeLa, 72 h, Table 4, repeated experiments, drug 10 μM, WST-1, read-out: survival rate (viability) of cancer cells, HeLa
[5] = system: AGS (Gastric Adenocarcinoma); assay: Cell viability analysis (WST-1), AGS; conditions: 72 h, Table 4, repeated experiments, drug 10 μM, WST-1, read-out: survival rate (viability) of cancer cells, AGS
[6] = system: H1650 (Lung Adenocarcinoma); assay: Cell viability analysis (WST-1), H1650; conditions: Homo sapiens, NCI-H1650, 72 h, Table 4, repeated experiments, drug 10 μM, WST-1, read-out: survival rate (viability) of cancer cells, H1650
[7] = system: MKN-45 (Gastric Adenocarcinoma); assay: Cell viability analysis (WST-1), MKN-45; conditions: Homo sapiens, MKN-45, 72 h, Table 4, repeated experiments, drug 10 μM, WST-1, read-out: survival rate (viability) of cancer cells, MKN-45
[8] = system: TSGH-8301 (Urinary Bladder Carcinoma); assay: Cell viability analysis (WST-1), TSGH-8301; conditions: 72 h, Table 4, repeated experiments, drug 10 μM, WST-1, read-out: survival rate (viability) of cancer cells, TSGH-8301
[9] = system: A549 (Lung Adenocarcinoma); assay: Cell viability analysis (WST-1), A549; conditions: Homo sapiens, A549, 72 h, Table 4, repeated experiments, drug 10 μM, WST-1, read-out: survival rate (viability) of cancer cells, A549
[10] = system: MCF7 (Mammary Gland, Adenocarcinoma); assay: Cell viability analysis (WST-1), MCF7; conditions: Homo sapiens, MCF7, 72 h, Table 4, repeated experiments, drug 10 μM, WST-1, read-out: survival rate (viability) of cancer cells, MCF-7
[11] = system: PC3 (Prostate Adenocarcinoma); assay: Cell viability analysis (WST-1), PC3; conditions: 72 h, Table 4, repeated experiments, drug 10 μM, WST-1, read-out: survival rate (viability) of cancer cells, PC-3
[12] = system: LoVo (Colorectal Adenocarcinoma); assay: Cell viability analysis (WST-1), LoVo; conditions: Homo sapiens, LoVo, 72 h, Table 4, repeated experiments, drug 10 μM, WST-1, read-out: survival rate (viability) of cancer cells, LoVo
T24 = assay: Cell viability analysis (WST-1), T24; conditions: Homo sapiens, T-24, 72 h, Table 4, repeated experiments, drug 10 μM, read-out: survival rate (viability) of cancer cells, T24
Experimental: (§1) Subculture the different types of cancer cells. The cancer cells includes lung cancer, gastric cancer, hepatic cancer, colon cancer, skin cancer, cervical cancer, prostate cancer, bladder cancer, breast cancer, leukemia, pancreatic cancer, ovarian cancer, tongue cancer, osteosarcoma, and renal cancer. The cell numbers were counted and reseed as 2×10^6 in cell culture plate/flask. Then, the culture medium for culturing the cell lines was added to a volume of 10 ml, and the cells were cultured for 2-3 days. Then, the cells were suspended for loading into 96-well plates. The cell number was 3000 cells and the volume of the culture medium was 100 ul each well.
(§2) Removing the original culture medium from 96-well plate. Then add 100 μl of commercially drug at a concentration of 10 μM per well. After 72 hours, add the diluted WST-1 reagent to the well with 100 μl/well, and the diluted WST-1 reagent was acquired from the dilution of 9:1 medium and WST-1 stock reagent. Finally, the total volume of each well are 200 μl/well. Culture the 96-well plate at 37° C. for 30 to 90 minutes. Detecting and calculating the survival rate of each cancer cells with an ELISA reader at OD450 nm. The lower viability of cancer cells represents better inhibition effect via the drugs. Otherwise, the higher viability of cancer cells represents worse inhibition effect via the drugs.
(§3) According to the above mentioned cardiovascular drugs for cancer growth inhibition in Table 3, the inventors took the repeat experiments for the cardiovascular drugs to check the growth inhibitory effects of cancer cells by the cardiovascular drugs. […] 4.

Hep3B = assay: Cell viability analysis (WST-1), Hep3B; conditions: Homo sapiens, Hep3B, 72 h, Table 4, repeated experiments, drug 10 μM, read-out: survival rate (viability) of cancer cells, Hep3B
Experimental: as §1, §2, §3

C-33A = assay: Cell viability analysis (WST-1), C-33A; conditions: Homo sapiens, C-33-A, 72 h, Table 4, repeated experiments, drug 10 μM, read-out: survival rate (viability) of cancer cells, C-33A
Experimental: as §1, §2, §3

MDA-MB231 = assay: Cell viability analysis (WST-1), MDA-MB231; conditions: Homo sapiens, MDA-MB-231, 72 h, Table 4, repeated experiments, drug 10 μM, read-out: survival rate (viability) of cancer cells, MDA-MB231
NIH-OVCAR-3 = assay: Cell viability analysis (WST-1), NIH-OVCAR-3; conditions: Homo sapiens, OVCAR-3, 72 h, Table 4, repeated experiments, drug 10 μM, read-out: survival rate (viability) of cancer cells, NIH-OVCAR-3
Experimental: as §1, §2, §3

TOV-21G = assay: Cell viability analysis (WST-1), TOV-21G; conditions: Homo sapiens, TOV21G, 72 h, Table 4, repeated experiments, drug 10 μM, read-out: survival rate (viability) of cancer cells, TOV-21G
Experimental: as §1, §2, §3

AsPC-1 = assay: Cell viability analysis (WST-1), AsPC-1; conditions: Homo sapiens, ASPC1, 72 h, Table 4, repeated experiments, drug 10 μM, read-out: survival rate (viability) of cancer cells, AsPC-1
Experimental: as §1, §2, §3

BxPC-3 = assay: Cell viability analysis (WST-1), BxPC-3; conditions: Homo sapiens, BXPC-3, 72 h, Table 4, repeated experiments, drug 10 μM, read-out: survival rate (viability) of cancer cells, BxPC-3
Experimental: as §1, §2, §3

SAS = assay: Cell viability analysis (WST-1), SAS; conditions: 72 h, Table 4, repeated experiments, drug 10 μM, read-out: survival rate (viability) of cancer cells, SAS
Experimental: as §1, §2, §3

U2OS = assay: Cell viability analysis (WST-1), U2OS; conditions: Homo sapiens, U2OS, 72 h, Table 4, repeated experiments, drug 10 μM, read-out: survival rate (viability) of cancer cells, U2OS
Experimental: as §1, §2, §3

BCC = assay: Cell viability analysis (WST-1), BCC; conditions: BCC, 72 h, Table 4, repeated experiments, drug 10 μM, read-out: survival rate (viability) of cancer cells, BCC
786-O = assay: Cell viability analysis (WST-1), 786-O; conditions: Homo sapiens, 786-0, 72 h, Table 4, repeated experiments, drug 10 μM, read-out: survival rate (viability) of cancer cells, 786-O
Experimental: as §1, §2, §3

cancer cell lines = assay: Growth inhibitory effects on the panel of cancer cell lines; conditions: drug 10 μM, 72 hours, WST-1

SMILES | viability at 10 µM [1] | viability at 10 µM [2] | viability at 10 µM [3] | viability at 10 µM [4] | viability at 10 µM [5] | viability at 10 µM [6] | viability at 10 µM [7] | viability at 10 µM [8] | viability at 10 µM [9] | viability at 10 µM [10] | viability at 10 µM [11] | viability at 10 µM [12] | viability at 10 µM (T24) | viability at 10 µM (Hep3B) | viability at 10 µM (C-33A) | viability at 10 µM (MDA-MB231) | viability at 10 µM (NIH-OVCAR-3) | viability at 10 µM (TOV-21G) | viability at 10 µM (AsPC-1) | viability at 10 µM (BxPC-3) | also measured
CC(C)N(CCC(C(N)=O)(c1ccccc1)c1ccccn1)C(C)C (centres unmarked) [Disopyramide Phosphate] | 114% | 94% | 109% | 103% | 95.9% | 90.5% | 111% | 115% | 99.4% | 107% | 103% | 105% | 87.6% | 113% | 98.5% | 98.8% | 103% | 94.3% | 77.2% | 69.9% | viability at 10 µM (SAS): 96.9%; viability at 10 µM (U2OS): 98.7%; viability at 10 µM (BCC): 110%; viability at 10 µM (786-O): 102%; inhibition effect on different cancer cell lines (in words) (cancer cell lines): significant inhibition effect
OC(CNCC(O)C1CCc2cc(F)ccc2O1)C1CCc2cc(F)ccc2O1 (centres unmarked) [Nebivolol(Bystolic), Nebivolol] | 44.9% | 81.9% | 42.1% | 52% | 26.6% | 87.4% | 52.8% | 38% | 49% | 27% | 37% | 85.3% | 97.6% | 44.8% | 77% | 66.4% | 86.8% | 86.2% | 88.7% | 74.4% | viability at 10 µM (SAS): 75.6%; viability at 10 µM (U2OS): 66.6%; viability at 10 µM (BCC): 55.8%; viability at 10 µM (786-O): 38.3%; inhibition effect on different cancer cell lines (in words) (cancer cell lines): significant inhibition effect
